In brackets after ≈: the same amount, converted by molar mass.
How the values were obtained:
[1] = physchem; conditions: octan-1-ol/water
[2] = physchem; conditions: pH 7.4 buffer

COc1ccnc(N(C)c2ccnc(Nc3cc(N4CCOCC4)cc(N4CCOCC4)c3)n2)c1
logD ([1]; pH 7.4, LogD7.4): 2.23 | solubility thermodynamic [2]: 51.3 µM (≈ 24.5 µg/mL)

COc1cc2c(Nc3ncc(CC(=O)Nc4cccc(F)c4)s3)ncnc2cc1OCCCN1CCC(CO)CC1
logD ([1]; pH 7.4, LogD7.4): 2.89 | solubility thermodynamic [2]: 26.9 µM (≈ 15.6 µg/mL)

Cc1ncc(-c2ccnc(Nc3ccccc3)n2)n1C(C)C
logD ([1]; pH 7.4, LogD7.4): 3.58 | solubility thermodynamic [2]: 35.5 µM (≈ 10.4 µg/mL)

Clc1cc(Nc2ncnc3[nH]nc(OCCN4CCCC4)c23)ccc1OCc1ccccn1
logD ([1]; pH 7.4, LogD7.4): 2.87 | solubility thermodynamic [2]: 12 µM (≈ 5.59 µg/mL)

CCn1c2ccccc2c2cc(NC(=O)CN(C)C)ccc21
logD ([1]; pH 7.4, LogD7.4): 3.2 | solubility thermodynamic [2]: 219 µM (≈ 64.6 µg/mL)

COc1cc2c(NC(=O)Nc3c(Cl)cccc3Cl)ncnc2cc1OCC1CCN(C)CC1
logD ([1]; pH 7.4, LogD7.4): 2.7 | solubility thermodynamic [2]: 10 µM (≈ 4.9 µg/mL)

CNc1cccc(CCOc2ccc(C[C@H](NC(=O)c3c(Cl)cccc3Cl)C(=O)O)cc2)n1
logD ([1]; pH 7.4, LogD7.4): -0.15 | solubility thermodynamic [2]: 1510 µM (≈ 739 µg/mL)

COc1ccc(Cl)cc1NC(=O)Nc1cnccn1
logD ([1]; pH 7.4, LogD7.4): 3.63 | solubility thermodynamic [2]: 0.7 µM (≈ 0.195 µg/mL)

CN1CCC(Oc2cccc3ncnc(Nc4ccc(OCc5cnccn5)c(Cl)c4)c23)CC1
logD ([1]; pH 7.4, LogD7.4): 3.21 | solubility thermodynamic [2]: 12.3 µM (≈ 5.87 µg/mL)

COc1cc2ncnc(Nc3ccc(Cl)c(O)c3)c2cc1OC
logD ([1]; pH 7.4, LogD7.4): 3.3 | solubility thermodynamic [2]: 1.4 µM (≈ 0.464 µg/mL)

Nc1ccccc1NC(=O)c1ccc(CNc2nccc(-c3cccnc3)n2)cc1 [MOCETINOSTAT]
logD ([1]; pH 7.4, LogD7.4): 2.28 | solubility thermodynamic [2]: 13.5 µM (≈ 5.35 µg/mL)

CNc1cccc(CCCc2ccc(C[C@H](NC(=O)c3c(Cl)cccc3Cl)C(=O)O)s2)n1
logD ([1]; pH 7.4, LogD7.4): 0.78 | solubility thermodynamic [2]: 331 µM (≈ 163 µg/mL)

COCCOc1cc(Nc2nccc(N(C)c3cc(CO)ccc3C)n2)cc(N2CCOCC2)c1
logD ([1]; pH 7.4, LogD7.4): 3.3 | solubility thermodynamic [2]: 126 µM (≈ 60.4 µg/mL)

CCCSc1nc(N2CCC[C@H](CC(=O)O)C2)ccc1C(=O)NC1CCCCC1
logD ([1]; pH 7.4, LogD7.4): 2.18 | solubility thermodynamic [2]: 174 µM (≈ 72.9 µg/mL)

O=C(Nc1ccc(N2CCOCC2)cc1)c1nnc(Nc2ccccc2)o1
logD ([1]; pH 7.4, LogD7.4): 3.15 | solubility thermodynamic [2]: 1.7 µM (≈ 0.621 µg/mL)

C[C@H](NC1=NC(=O)C(C)(C(F)(F)F)S1)c1ccccc1F (some centres undefined)
logD ([1]; pH 7.4, LogD7.4): 3.1 | solubility thermodynamic [2]: 339 µM (≈ 109 µg/mL)

Cn1c(C#N)ccc1-c1ccc2c(c1)C(C)(C)OC(=O)N2
logD ([1]; pH 7.4, LogD7.4): 2.85 | solubility thermodynamic [2]: 13.2 µM (≈ 3.71 µg/mL)

COC(=O)C1=C(C)NC(C)=C(C(=O)OCC(C)C)C1c1ccccc1[N+](=O)[O-] (centres undefined) [NISOLDIPINE]
logD ([1]; pH 7.4, LogD7.4): 3.59 | solubility thermodynamic [2]: 2.2 µM (≈ 0.855 µg/mL)

Cc1ccc(Oc2ccc(Nc3ncnc4[nH]nc(OCCN5CCC(O)CC5)c34)cc2Cl)cn1
logD ([1]; pH 7.4, LogD7.4): 3.4 | solubility thermodynamic [2]: 28.2 µM (≈ 14 µg/mL)

Cc1cc(Nc2ccnc(NCc3cc(C4CC4)no3)n2)n[nH]1
logD ([1]; pH 7.4, LogD7.4): 2.5 | solubility thermodynamic [2]: 63.1 µM (≈ 19.6 µg/mL)

Cc1nc(C)c(-c2ccc([C@H]3CC[C@@H](CC(=O)O)CC3)c(Cl)c2)nc1C(N)=O
logD ([1]; pH 7.4, LogD7.4): 1.7 | solubility thermodynamic [2]: 200 µM (≈ 80.2 µg/mL)

CCn1c2ccccc2c2cc(NC(=O)CCc3ccncc3)ccc21
logD ([1]; pH 7.4, LogD7.4): 3.75 | solubility thermodynamic [2]: 2 µM (≈ 0.687 µg/mL)

Cc1ncc(-c2ccnc(Nc3ccc(S(=O)(=O)CCCN4CCOCC4)cc3)n2)n1C(C)C
logD ([1]; pH 7.4, LogD7.4): 2.43 | solubility thermodynamic [2]: 851 µM (≈ 412 µg/mL)

O=C(NCCNC(=O)c1cn(-c2ccccc2)nc1C(F)(F)F)c1ccc(Cl)cn1
logD ([1]; pH 7.4, LogD7.4): 3.8 | solubility thermodynamic [2]: 3.4 µM (≈ 1.49 µg/mL)

N#Cc1nc(N2CCOCC2)nc(N2CCOCC2)n1
logD ([1]; pH 7.4): 1.51 | solubility thermodynamic [2]: 77.6 µM (≈ 21.4 µg/mL)

CCOC(=O)c1ccc(OCC2CN(c3ccc(C)nn3)C2)cc1
logD ([1]; pH 7.4, LogD7.4): 3.1 | solubility thermodynamic [2]: 141 µM (≈ 46.3 µg/mL)

Nc1nc(N)c2nc(-c3ccccc3)c(N)nc2n1
logD ([1]; pH 7.4, LogD7.4): 1.16 | solubility thermodynamic [2]: 97.7 µM (≈ 24.7 µg/mL)

O=C(N[C@@H](Cc1ccccc1)[C@@H](O)C(=O)N1C[C@@H](O)[C@@H](O)C1)c1cc2cc(Cl)ccc2[nH]1 [INGLIFORIB]
logD ([1]; pH 7.4, LogD7.4): 2.8 | solubility thermodynamic [2]: 436 µM (≈ 200 µg/mL)

CN(C)c1cccc2c(S(N)(=O)=O)cccc12
logD ([1]; pH 7.4, LogD7.4): 1.95 | solubility thermodynamic [2]: 23.4 µM (≈ 5.86 µg/mL)

Nc1nccc(/C=C/c2ccc(Cl)cc2)n1
logD ([1]; pH 7.4): 3.5 | solubility thermodynamic [2]: 8.7 µM (≈ 2.02 µg/mL)

Cc1cc(CNc2nccc(Nc3cc(C)[nH]n3)n2)on1
logD ([1]; pH 7.4, LogD7.4): 1.86 | solubility thermodynamic [2]: 813 µM (≈ 232 µg/mL)

COc1cccc2c(O)cc(-c3ccccc3)nc12
logD ([1]; pH 7.4, LogD7.4): 2.3 | solubility thermodynamic [2]: 224 µM (≈ 56.3 µg/mL)

Reference: ChEMBL document CHEMBL3301361, “Experimental in vitro DMPK and physicochemical data on a set of publicly disclosed compounds”
